Test results as given in US20120315654A1, “COMPOSITIONS AND METHODS FOR DETECTING CARDIOTOXICITY” (DUKE UNIVERSITY, priority 2011, published 2012).

Columns and labels:
Cr transport = biological target: T1, Cr transport (Homo sapiens, UniProt P48029); settings: Dai W. et al., 1999; read-out: IC50 for inhibition of Cr transport; cited from earlier work
T1 sequence (P48029 1-635): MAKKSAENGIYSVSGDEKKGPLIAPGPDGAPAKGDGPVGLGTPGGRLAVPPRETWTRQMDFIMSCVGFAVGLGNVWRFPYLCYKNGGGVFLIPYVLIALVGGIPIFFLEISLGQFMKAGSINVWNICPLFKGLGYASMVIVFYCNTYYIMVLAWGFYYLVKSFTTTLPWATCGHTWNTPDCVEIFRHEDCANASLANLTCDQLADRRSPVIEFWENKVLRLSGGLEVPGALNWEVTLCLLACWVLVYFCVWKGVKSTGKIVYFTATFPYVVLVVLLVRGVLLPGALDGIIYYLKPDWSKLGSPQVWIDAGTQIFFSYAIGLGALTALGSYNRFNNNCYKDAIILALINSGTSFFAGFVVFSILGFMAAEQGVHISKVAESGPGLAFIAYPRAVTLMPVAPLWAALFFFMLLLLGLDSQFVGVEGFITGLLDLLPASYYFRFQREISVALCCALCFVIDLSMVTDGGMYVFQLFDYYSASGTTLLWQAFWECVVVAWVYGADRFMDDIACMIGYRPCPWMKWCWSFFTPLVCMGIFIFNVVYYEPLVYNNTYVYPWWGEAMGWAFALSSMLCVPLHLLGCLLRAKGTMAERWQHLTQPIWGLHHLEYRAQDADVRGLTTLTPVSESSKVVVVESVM

CrT [1] = biological target: T2, CrT (Homo sapiens, UniProt P48029); assay: DOX competition assay: 14C-Cr uptake in the presence of DOX and/or B-GPA; format: cell-based; settings: acute exposure during uptake; 2 μmol/L DOX, 100 μmol/L B-GPA; control = 1.00
T2 construct: swapped with the corresponding fragment from the human full-length open reading frame; expressed in transfected cells; host or cells: HL-1 murine atrial cardiomyocyte line, transient transfection with pcDNA3.1(-) human CrT cDNA
T2 sequence (P48029 1-635): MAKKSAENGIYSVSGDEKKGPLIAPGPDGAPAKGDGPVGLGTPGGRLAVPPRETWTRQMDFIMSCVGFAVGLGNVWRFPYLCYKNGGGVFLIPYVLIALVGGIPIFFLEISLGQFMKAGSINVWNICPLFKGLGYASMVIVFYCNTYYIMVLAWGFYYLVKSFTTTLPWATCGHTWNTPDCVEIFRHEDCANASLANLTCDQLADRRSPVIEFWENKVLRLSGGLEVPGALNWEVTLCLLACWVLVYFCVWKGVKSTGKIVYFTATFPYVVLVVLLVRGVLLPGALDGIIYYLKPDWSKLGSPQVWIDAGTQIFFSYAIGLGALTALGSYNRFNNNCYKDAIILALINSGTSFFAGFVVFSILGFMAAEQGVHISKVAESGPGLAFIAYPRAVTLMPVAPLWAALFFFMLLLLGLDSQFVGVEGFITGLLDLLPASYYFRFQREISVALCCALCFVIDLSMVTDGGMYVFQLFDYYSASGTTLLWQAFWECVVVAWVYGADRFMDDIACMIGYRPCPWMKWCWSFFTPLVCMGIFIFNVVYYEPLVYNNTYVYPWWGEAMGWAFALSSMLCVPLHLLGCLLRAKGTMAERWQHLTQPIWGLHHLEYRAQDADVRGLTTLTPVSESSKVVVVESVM
Method: (§1) Cells used for Cr transport assays were cultured in 24-well plates coated with fibronectin and gelatin. The wells were washed twice with room temperature choline buffer (150 mmol/L choline chloride; 1 mmol/L CaCl2; 5 mmol/L MgCl2; 2 mmol/L KCl; and 5 mmol/L HEPES-Tris, pH 7.5).
(§2) The cells were lysed with 500 mmol/L NaOH and heated to 80° C. for 30 min. 100 μl of cell lysate was subjected to scintillation counting using a BECKMAN COULTER LS 6500 scintillation counter. Cr transport was normalized to the protein concentration measured using the bicinchoninic acid (BCA) protein assay (PIERCE BIOTECHNOLOGY, Rockford, Ill.).

CrT [2] = biological target: T2, CrT; assay: 14C-Cr transport in HL-1 cells expressing the human CrT protein (dose-response, time course, kinetics); format: cell-based; settings: HL-1 cells expressing human CrT, Michaelis-Menten, no DOX
Method: The cultures were maintained in a humidified atmosphere of 5% CO2 at 37° C.
as §1, §2

[3] = substrate: CN(CC(=O)O)C(=N)N; assay: as above; format: cell-based; settings: other: HL-1 cells expressing human CrT, Michaelis-Menten, no DOX; pH 7.5
Method: Cells were plated on tissue culture dishes pre-coated with gelatin/fibronectin and allowed to grow in M199 media (INVITROGEN, Carlsbad, Calif.) containing 2% serum before experimentation. […] The cultures were maintained in a humidified atmosphere of 5% CO2 at 37° C.
Cultures intended for Cr transport measurements were grown in 24-well culture plates, whereas those used to characterize the CrT protein were cultured in 6-well dishes.
Cr transport assays were performed after growth in control media for 0, 4, 12, 24 or 48 hrs.
For experiments with RNCM, each condition was tested in quadruplicate. Measurements were performed in triplicate for experiments performed using HL-1 cells.

NC(N)=NCCC(=O)O [β-GPA]
IC50 (Cr transport): 50 µM
Relative Vmax ± SEM (CrT [1]): 0.43 ± 0.11

CN(CC(=O)O)C(=N)N [Cr, Creatine]
Cr transport Vmax (CrT [2]): 42.9±5.24 nmol/mg protein

B1: human CrT (Homo sapiens) (protein)
chain: MAKKSAENGIYSVSGDEKKGPLIAPGPDGAPAKGDGPVGLGTPGGRLAVPPRETWTRQMDFIMSCVGFAVGLGNVWRFPYLCYKNGGGVFLIPYVLIALVGGIPIFFLEISLGQFMKAGSINVWNICPLFKGLGYASMVIVFYCNTYYIMVLAWGFYYLVKSFTTTLPWATCGHTWNTPDCVEIFRHEDCANASLANLTCDQLADRRSPVIEFWENKVLRLSGGLEVPGALNWEVTLCLLACWVLVYFCVWKGVKSTGKIVYFTATFPYVVLVVLLVRGVLLPGALDGIIYYLKPDWSKLGSPQVWIDAGTQIFFSYAIGLGALTALGSYNRFNNNCYKDAIILALINSGTSFFAGFVVFSILGFMAAEQGVHISKVAESGPGLAFIAYPRAVTLMPVAPLWAALFFFMLLLLGLDSQFVGVEGFITGLLDLLPASYYFRFQREISVALCCALCFVIDLSMVTDGGMYVFQLFDYYSASGTTLLWQAFWECVVVAWVYGADRFMDDIACMIGYRPCPWMKWCWSFFTPLVCMGIFIFNVVYYEPLVYNNTYVYPWWGEAMGWAFALSSMLCVPLHLLGCLLRAKGTMAERWQHLTQPIWGLHHLEYRAQDADVRGLTTLTPVSESSKVVVVESVM
notes: swapped with the corresponding fragment from the human full-length open reading frame; expressed in transfected cells; host or cells: HL-1 murine atrial cardiomyocyte line, transient transfection with pcDNA3.1(-) human CrT cDNA
Km [3]: 63.5 ± 2.37 µM
